US11491120B2, “Pharmacological prophylactics against stress-induced affective disorders in females” (The Trustees of Columbia University in the City of New York, priority 2017, dated 2022)
Entries after “also recorded” stand apart in the source; their conditions may differ.

Assays:
female 129S6/SvEv mice = experiment: Forced swim test (FST), immobility time, after stress
male mice = experiment: Prophylactic efficacy in male mice (immobility in the forced swim test); type: in vivo, mouse
[1] = Forced Swim Test Day 1, Dunnett test Sal vs. drug (0.3), 1 week prophylactic drug
[2] = Forced Swim Test Day 1, Dunnett test Sal vs. drug (2.5), 1 week prophylactic drug
[3] = Forced Swim Test Day 1, Dunnett test Sal vs. drug (10), 1 week prophylactic drug
[4] = Ovariectomized cohort, 1 week prophylactic drug, Forced Swim Test Day 1, OVX mice, K (10), (2R,6R)-HNK (0.025)
[5] = Ovariectomized cohort, 1 week prophylactic drug, Forced Swim Test Day 1, Sham mice, K (10), (2R,6R)-HNK (0.025)
[6] = Ovariectomized cohort, 1 week prophylactic drug, Forced Swim Test Day 1, Sham vs OVX, same drug, K (10), (2R,6R)-HNK (0.025)
[7] = Ovariectomized, E2/P4 replacement, 1 week prophylactic drug, Forced Swim Test Day 2, K (10), (2R,6R)-HNK (0.025), FIG. 5F
[8] = Ovariectomized, same drug, hormone Vehicle vs. E2/P4 replacement, 1 week prophylactic drug, Forced Swim Test Day 2, K (10), (2R,6R)-HNK (0.025), FIG. 5F
[9] = Sal vs. (2R,6R)-HNK (0.025), Fisher's PLSD, 1 week prophylactic drug, learned helplessness stress, Forced Swim Test Day 1
[10] = Sal vs. (2R,6R)-HNK (0.025), Fisher's PLSD, 3 day prophylactic drug/Forced Swim Test Day 1
[11] = Same drug, Sham vs. ovariectomized, 1 week prophylactic drug, Forced Swim Test Day 2, K (10), (2R,6R)-HNK (0.025), FIG. 5C
[12] = Sham-operated females, 1 week prophylactic drug, Forced Swim Test Day 2, K (10), (2R,6R)-HNK (0.025), FIG. 5C

N[C@@]1(c2ccccc2Cl)CCC[C@@H](O)C1=O [(2R,6R)-HNK, (2R,6R)-hydroxynorketamine]
p, Immobility Time Average (min 3-6) (female 129S6/SvEv mice; Forced Swim Test Day 1, Dunnett test Sal vs. drug (0.1), 1 week prophylactic drug): 0.3240 | p, Immobility Time (min 1) (female 129S6/SvEv mice; [1]): 0.0586 | p, Immobility Time (min 1-6) (female 129S6/SvEv mice; [1]): >0.9999 | p, Immobility Time (min 3) (female 129S6/SvEv mice; [1]): >0.9999 | p, Immobility Time (min 4) (female 129S6/SvEv mice; [1]): 0.7424 | p, Immobility Time (min 5) (female 129S6/SvEv mice; [1]): 0.3614 | p, Immobility Time (min 6) (female 129S6/SvEv mice; [1]): 0.9996 | p, Immobility Time Average (min 3-6) (female 129S6/SvEv mice; [1]): 0.9455 | * (significance), Immobility Time (min 1) (female 129S6/SvEv mice; [2]): ** (** p<0.01) | p, Immobility Time (min 1) (female 129S6/SvEv mice; [2]): 0.0026 | p, Immobility Time (min 1-6) (female 129S6/SvEv mice; [2]): 0.7127 | p, Immobility Time (min 3) (female 129S6/SvEv mice; [2]): 0.9998 | p, Immobility Time (min 4) (female 129S6/SvEv mice; [2]): 0.9999 | p, Immobility Time (min 5) (female 129S6/SvEv mice; [2]): 0.9867 | p, Immobility Time (min 6) (female 129S6/SvEv mice; [2]): 0.9994 | p, Immobility Time Average (min 3-6) (female 129S6/SvEv mice; [2]): 0.9997 | p, Immobility Time (min 1) (female 129S6/SvEv mice; [3]): 0.0528 | p, Immobility Time (min 1-6) (female 129S6/SvEv mice; [3]): 0.9943 | p, Immobility Time (min 3) (female 129S6/SvEv mice; [3]): 0.6584 | p, Immobility Time (min 4) (female 129S6/SvEv mice; [3]): 0.5947 | p, Immobility Time (min 5) (female 129S6/SvEv mice; [3]): 0.6743 | p, Immobility Time (min 6) (female 129S6/SvEv mice; [3]): 0.1601 | p, Immobility Time Average (min 3-6) (female 129S6/SvEv mice; [3]): 0.3035 | p, Immobility Time (min 1-6), OVX Sal vs OVX drug (female 129S6/SvEv mice; [4]): 0.2525 | p, Immobility Time Average (min 3-6), Fisher's PLSD, OVX Sal vs OVX drug (female 129S6/SvEv mice; [4]): 0.3199 | p, Immobility Time (min 1-6), Sham Sal vs Sham drug (female 129S6/SvEv mice; [5]): 0.7085 | p, Immobility Time Average (min 3-6), Fisher's PLSD, Sham Sal vs Sham drug (female 129S6/SvEv mice; [5]): 0.9957 | * (significance), Immobility Time (min 1-6), Sham drug vs OVX drug (female 129S6/SvEv mice; [6]): *** (*** p<0.0001) | * (significance), Immobility Time Average (min 3-6), Fisher's PLSD, Sham drug vs OVX drug (female 129S6/SvEv mice; [6]): *** (*** p<0.0001) | p, Immobility Time (min 1-6), Sham drug vs OVX drug (female 129S6/SvEv mice; [6]): <0.0001 | p, Immobility Time Average (min 3-6), Fisher's PLSD, Sham drug vs OVX drug (female 129S6/SvEv mice; [6]): 0.0001 | p, Fisher's PLSD, Immobility Time Average (min 3-6), OVX Sal vs. OVX drug (female 129S6/SvEv mice; Ovariectomized females, 1 week prophylactic drug, Forced Swim Test Day 2, K (10), (2R,6R)-HNK (0.025), FIG. 5C): 0.9445 | p, Fisher's PLSD, Immobility Time Average (min 3-6), E2/P4 Sal vs. E2/P4 drug (female 129S6/SvEv mice; [7]): 0.0316 | significance (*), Fisher's PLSD, Immobility Time Average (min 3-6), E2/P4 Sal vs. E2/P4 drug (female 129S6/SvEv mice; [7]): * (* p<0.05) | p, Fisher's PLSD, Immobility Time Average (min 3-6), Vehicle Sal vs. Vehicle drug (female 129S6/SvEv mice; Ovariectomized, hormone Vehicle, 1 week prophylactic drug, Forced Swim Test Day 2, K (10), (2R,6R)-HNK (0.025), FIG. 5F): 0.6287 | p, Fisher's PLSD, Immobility Time Average (min 3-6), Vehicle drug vs. E2/P4 drug (female 129S6/SvEv mice; [8]): 0.0013 | significance (*), Fisher's PLSD, Immobility Time Average (min 3-6), Vehicle drug vs. E2/P4 drug (female 129S6/SvEv mice; [8]): ** (** p<0.01) | *, Immobility Time (min 1) (female 129S6/SvEv mice; [9]): ** (** p<0.01) | *, Immobility Time (min 2) (female 129S6/SvEv mice; [9]): *** (*** p<0.0001) | *, Immobility Time (min 3) (female 129S6/SvEv mice; [9]): *** (*** p<0.0001) | *, Immobility Time (min 4) (female 129S6/SvEv mice; [9]): ** (** p<0.01) | *, Immobility Time (min 5) (female 129S6/SvEv mice; [9]): ** (** p<0.01) | *, Immobility Time (min 6) (female 129S6/SvEv mice; [9]): ** (** p<0.01) | *, Immobility Time Average (min 1-6) (female 129S6/SvEv mice; [9]): *** (*** p<0.0001) | p, Immobility Time (min 1) (female 129S6/SvEv mice; [9]): 0.0043 | p, Immobility Time (min 2) (female 129S6/SvEv mice; [9]): <0.0001 | p, Immobility Time (min 3) (female 129S6/SvEv mice; [9]): 0.0001 | p, Immobility Time (min 4) (female 129S6/SvEv mice; [9]): 0.0009 | p, Immobility Time (min 5) (female 129S6/SvEv mice; [9]): 0.0002 | p, Immobility Time (min 6) (female 129S6/SvEv mice; [9]): 0.0002 | p, Immobility Time Average (min 1-6) (female 129S6/SvEv mice; [9]): 0.0001 | *, Immobility Time (min 1) (female 129S6/SvEv mice; [10]): *** (*** p<0.0001) | *, Immobility Time (min 2) (female 129S6/SvEv mice; [10]): ** (** p<0.01) | *, Immobility Time (min 3) (female 129S6/SvEv mice; [10]): ** (** p<0.01) | *, Immobility Time (min 4) (female 129S6/SvEv mice; [10]): ** (** p<0.01) | *, Immobility Time (min 5) (female 129S6/SvEv mice; [10]): ** (** p<0.01) | *, Immobility Time (min 6) (female 129S6/SvEv mice; [10]): ** (** p<0.01) | *, Immobility Time Average (min 3-6) (female 129S6/SvEv mice; [10]): ** (** p<0.01) | p, Immobility Time (min 1) (female 129S6/SvEv mice; [10]): <0.0001 | p, Immobility Time (min 2) (female 129S6/SvEv mice; [10]): 0.0005 | p, Immobility Time (min 3) (female 129S6/SvEv mice; [10]): 0.0073 | p, Immobility Time (min 4) (female 129S6/SvEv mice; [10]): 0.0039 | p, Immobility Time (min 5) (female 129S6/SvEv mice; [10]): 0.0006 | p, Immobility Time (min 6) (female 129S6/SvEv mice; [10]): 0.0006 | p, Immobility Time Average (min 3-6) (female 129S6/SvEv mice; [10]): 0.0008 | p, Immobility Time (min 1) (female 129S6/SvEv mice; Sal vs. (2R,6R)-HNK (0.025), Fisher's PLSD, Antidepressant drug/Forced Swim Test Day 2): 0.2184 | p, Immobility Time Average (min 3-6) (female 129S6/SvEv mice; Sal vs. (2R,6R)-HNK (0.025), t-test, 24 hour prophylactic drug/Forced Swim Test Day 1): 0.5779 | p, Fisher's PLSD, Immobility Time Average (min 3-6), Sham drug vs. OVX drug (female 129S6/SvEv mice; [11]): 0.0476 | significance (*), Fisher's PLSD, Immobility Time Average (min 3-6), Sham drug vs. OVX drug (female 129S6/SvEv mice; [11]): * (* p<0.05) | p, Fisher's PLSD, Immobility Time Average (min 3-6), Sham Sal vs. Sham drug (female 129S6/SvEv mice; [12]): 0.0099 | significance (*), Fisher's PLSD, Immobility Time Average (min 3-6), Sham Sal vs. Sham drug (female 129S6/SvEv mice; [12]): ** (** p<0.01) | Immobility in the FST (Day 1 and Day 2) vs saline (female 129S6/SvEv mice; drug administered 1 hour after 3-shock CFC stressor, female mice): did not reduce immobility levels; also recorded: Neither (R,S)-ketamine nor (2R,6R)-HNK significantly affected immobility time | Prophylactically effective dose in females (female 129S6/SvEv mice; female mice, 1 week before stressor): 0.025 mg/kg | Immobility in the FST vs saline (female 129S6/SvEv mice; ovariectomized mice with cyclic E2 and P4 replacement, drug 1 week before CFC): significantly less immobile compared to control saline mice; also recorded: significantly reduced immobility | Prophylactic efficacy against stress-induced depressive-like behavior (female 129S6/SvEv mice; single injection 1 week before stressor, female mice): significantly reduced stress-induced depressive-like behavior; also recorded: significantly decreased stress-induced depressive-like behavior; also recorded: is prophylactic against depressive-like behavior; also recorded: prophylactic against stress-induced depressive-like behavior; also recorded: effective prophylactics against a variety of stressors; also recorded: protect against stress-induced depressive-like behavior | Prophylactically effective dose in males (male mice): 0.075 mg/kg
